Experimental data as given in PubChem BioAssay AID330 (DTP/NCI, 2004).
“And” between values parts separate entries of the source, which are not always exact repeats. Identical values can stand only once. Inconclusive results and toxic doses are left out. The calls were made as follows: active = survival T/C of 150% or more; inactive = T/C below 125% in these data.

Tested on: P388 leukemia ip, CD2F1 mice, survival T/C
Assay: NCI In Vivo Anticancer Drug Screen. Data for tumor model P388 Leukemia (intraperitoneal) in CD2F1 (CDF1) mice
Conditions: endpoint: median survival time, higher = longer survival
Summary of the method: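 Mice carrying the transplanted tumor received test compound or vehicle. Survival was recorded in each group, and the value is the treated-group measurement divided by that of the vehicle-treated control group.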

[1] = dose: 50.0 mg/kg/injection, schedule: Q01DX005 (ip), vehicle: Klucel (hydroxypropylcellulose) (HPC)
[2] = dose: 100.0 mg/kg/injection, schedule: Q01DX005 (ip), vehicle: Klucel (hydroxypropylcellulose) (HPC)
[3] = dose: 25.0 mg/kg/injection, schedule: Q01DX009 (ip), vehicle: saline with Tween-80
[4] = dose: 50.0 mg/kg/injection, schedule: Q01DX009 (ip), vehicle: saline with Tween-80
[5] = dose: 50.0 mg/kg/injection, schedule: Q01DX005 (ip), vehicle: saline
[6] = dose: 100.0 mg/kg/injection, schedule: Q01DX005 (ip), vehicle: saline
[7] = dose: 60.0 mg/kg/injection, schedule: Q01DX005 (ip), vehicle: saline with Tween-80
[8] = dose: 120.0 mg/kg/injection, schedule: Q01DX005 (ip), vehicle: saline with Tween-80
[9] = dose: 240.0 mg/kg/injection, schedule: Q01DX005 (ip), vehicle: saline with Tween-80
[10] = dose: 25.0 mg/kg/injection, schedule: Q01DX005 (ip), vehicle: Klucel (hydroxypropylcellulose) (HPC)
[11] = dose: 100.0 mg/kg/injection, schedule: Q01DX009 (ip), vehicle: saline with Tween-80
[12] = dose: 200.0 mg/kg/injection, schedule: Q01DX009 (ip), vehicle: saline with Tween-80
[13] = dose: 400.0 mg/kg/injection, schedule: Q01DX009 (ip), vehicle: saline with Tween-80
[14] = dose: 50.0 mg/kg/injection, schedule: Q01DX005 (ip), vehicle: distilled water + Tween-80
[15] = dose: 100.0 mg/kg/injection, schedule: Q01DX005 (ip), vehicle: distilled water + Tween-80
[16] = dose: 50.0 mg/kg/injection, schedule: Q01DX005 (ip), vehicle: saline with Tween-80
[17] = dose: 100.0 mg/kg/injection, schedule: Q01DX005 (ip), vehicle: saline with Tween-80
[18] = dose: 200.0 mg/kg/injection, schedule: Q01DX005 (ip), vehicle: saline with Tween-80
[19] = dose: 100.0 mg/kg/injection, schedule: Q04DX003 (ip), vehicle: Klucel (hydroxypropylcellulose) (HPC)
[20] = dose: 200.0 mg/kg/injection, schedule: Q04DX003 (ip), vehicle: Klucel (hydroxypropylcellulose) (HPC)
[21] = dose: 100.0 mg/kg/injection, schedule: Q01DX001 (ip), vehicle: Klucel (hydroxypropylcellulose) (HPC)
[22] = dose: 200.0 mg/kg/injection, schedule: Q01DX001 (ip), vehicle: Klucel (hydroxypropylcellulose) (HPC)
[23] = dose: 400.0 mg/kg/injection, schedule: Q01DX001 (ip), vehicle: Klucel (hydroxypropylcellulose) (HPC)

Measured: T/C

O=C(NCCNc1ccccc1)C12CC3CC(CC(C3)C1)C2
inactive: [1] 100 % of control | [2] 95 % of control | dose: 200.0 mg/kg/injection, schedule: Q01DX005 (ip), vehicle: Klucel (hydroxypropylcellulose) (HPC) 95 % of control

c1ccc(-c2nc3ccccc3nc2-c2ccc(-c3ccc(-c4nc5ccccc5nc4-c4ccccc4)cc3)cc2)cc1
inactive: dose: 6.25 mg/kg/injection, schedule: Q01DX009 (ip), vehicle: saline with Tween-80 88 % of control and 96 % of control | dose: 12.5 mg/kg/injection, schedule: Q01DX009 (ip), vehicle: saline with Tween-80 101 % of control and 90 % of control | [3] 99 % of control and 120 % of control and 92 % of control | [4] 114 % of control and 87 % of control

BC(=O)O
inactive: dose: 25.0 mg/kg/injection, schedule: Q01DX005 (ip), vehicle: saline 97 % of control | [5] 93 % of control | [6] 93 % of control | dose: 200.0 mg/kg/injection, schedule: Q01DX005 (ip), vehicle: saline 106 % of control

CN(C)c1nc(=O)c2c(ccc3ccccc32)o1
inactive: [7] 97 % of control | [8] 104 % of control | [9] 101 % of control

COc1ccc(SCC(=O)c2ccc([N+](=O)[O-])o2)cc1
inactive: dose: 50.0 mg/kg/injection, schedule: Q01DX009 (ip), vehicle: suspension in saline 114 % of control | dose: 100.0 mg/kg/injection, schedule: Q01DX009 (ip), vehicle: suspension in saline 104 % of control

CC(C)(C)OC(=O)N/N=C\c1ccnc2ccccc12
inactive: [10] 93 % of control | [1] 96 % of control | [2] 93 % of control

Cc1cc(C)cc(OC(=O)/C=C/C(=O)Oc2cc(C)cc(C)c2)c1
inactive: [11] 90 % of control | [12] 90 % of control | [13] 90 % of control

CC[N+](C)(CC)CCNc1cc2c(c3c(=O)c4ccccc4sc13)CCCC2
inactive: dose: 25.0 mg/kg/injection, schedule: Q01DX005 (ip), vehicle: distilled water + Tween-80 119 % of control | [14] 106 % of control | [15] 101 % of control

CC1=CC(=O)C2OC(=O)CC3C=CCC1C32C (stereo not given)
inactive: [10] 99 % of control | [1] 103 % of control | [2] 103 % of control

CCOc1cc2c(cc1C(C)c1ccc(Cl)cc1)OCO2 (stereo not given)
inactive: [16] 93 % of control | [17] 99 % of control | [18] 93 % of control

OCCSC(=S)Nc1ccc(Cl)c(Cl)c1
inactive: dose: 50.0 mg/kg/injection, schedule: Q01DX009 (ip), vehicle: saline 96 % of control | dose: 100.0 mg/kg/injection, schedule: Q01DX009 (ip), vehicle: saline 103 % of control

O=c1[nH]c2cc(Cl)ccc2nc1/C=C(\O)c1ccc(O)cc1
inactive: [7] 102 % of control | [8] 95 % of control | [9] 95 % of control

CC(C)(C)OC(=O)NC(CCC(N)=O)C(=O)ON1C(=O)CCC1=O (stereo not given)
inactive: [16] 98 % of control | [17] 99 % of control | [18] 104 % of control

CCN(CC)CCCC(C)Nc1nccc2cccc(Cl)c12 (stereo not given)
inactive: [5] 104 % of control | [6] 104 % of control

O=[N+]([O-])c1ccccc1SSc1ccccc1[N+](=O)[O-]
inactive: [11] 95 % of control | [12] 104 % of control | [13] 100 % of control

NC(=S)c1cccc(C=O)n1
inactive: [3] 99 % of control | [4] 99 % of control | dose: 50.0 mg/kg/injection, schedule: Q04DX003 (ip), vehicle: Klucel (hydroxypropylcellulose) (HPC) 110 % of control | [11] 97 % of control | [19] 112 % of control | [20] 114 % of control

O=C1Nc2ccccc2/C1=N/N=c1\scc(-c2ccc(Br)cc2)n1-c1ccc(Cl)cc1
inactive: dose: 50.0 mg/kg/injection, schedule: Q01DX001 (ip), vehicle: saline with Tween-80 93 % of control | dose: 100.0 mg/kg/injection, schedule: Q01DX001 (ip), vehicle: saline with Tween-80 99 % of control | dose: 200.0 mg/kg/injection, schedule: Q01DX001 (ip), vehicle: saline with Tween-80 89 % of control and 94 % of control

O=C(c1cccc(C(=O)N2CCOCC2)n1)N1CCOCC1
inactive: dose: 60.0 mg/kg/injection, schedule: Q01DX005 (ip), vehicle: saline 106 % of control | dose: 120.0 mg/kg/injection, schedule: Q01DX005 (ip), vehicle: saline 100 % of control | dose: 240.0 mg/kg/injection, schedule: Q01DX005 (ip), vehicle: saline 106 % of control

Cc1cc(N/N=C/c2ccc(F)cc2)c2cc3c(cc2n1)OCO3
inactive: dose: 12.5 mg/kg/injection, schedule: Q01DX005 (ip), vehicle: Klucel (hydroxypropylcellulose) (HPC) 104 % of control | [10] 104 % of control | [1] 107 % of control and 109 % of control

O=C1Nc2ccccc2/C1=N/N=C/c1ccc(Cl)cc1Cl
inactive: dose: 50.0 mg/kg/injection, schedule: Q01DX009 (ip), vehicle: Klucel (hydroxypropylcellulose) (HPC) 100 % of control | dose: 100.0 mg/kg/injection, schedule: Q01DX009 (ip), vehicle: Klucel (hydroxypropylcellulose) (HPC) 88 % of control and 90 % of control | dose: 200.0 mg/kg/injection, schedule: Q01DX009 (ip), vehicle: Klucel (hydroxypropylcellulose) (HPC) 100 % of control and 98 % of control

O=C(c1ccc(Cl)cc1)n1c(Cl)c(/C=N\Nc2cccc([N+](=O)[O-])c2)c2ccccc21
inactive: dose: 50.0 mg/kg/injection, schedule: Q01DX001 (ip), vehicle: Klucel (hydroxypropylcellulose) (HPC) 86 % of control | [21] 86 % of control | [22] 87 % of control

CC1CN(C(=O)Nc2ccc(Cl)c(Cl)c2)CC(C)O1 (stereo not given)
inactive: dose: 6.25 mg/kg/injection, schedule: Q01DX009 (ip), vehicle: saline 100 % of control | dose: 12.5 mg/kg/injection, schedule: Q01DX009 (ip), vehicle: saline 98 % of control | dose: 25.0 mg/kg/injection, schedule: Q01DX009 (ip), vehicle: saline 86 % of control | [12] 100 % of control

Clc1ccc2nc3ccccc3c(SCCCCCCSc3c4ccccc4nc4ccc(Cl)cc34)c2c1
inactive: dose: 7.5 mg/kg/injection, schedule: Q01DX005 (ip), vehicle: Klucel (hydroxypropylcellulose) (HPC) 103 % of control | dose: 15.0 mg/kg/injection, schedule: Q01DX005 (ip), vehicle: Klucel (hydroxypropylcellulose) (HPC) 97 % of control | dose: 240.0 mg/kg/injection, schedule: Q01DX005 (ip), vehicle: Klucel (hydroxypropylcellulose) (HPC) 89 % of control

C/C(=N/NC(=S)NNC(=S)N(C)c1ccccc1)c1nccc2ccccc12
inactive: [16] 102 % of control | [17] 101 % of control | [18] 104 % of control

Nc1nnn(/N=C\C=N/n2nnc(N)n2)n1
inactive: [21] 94 % of control | [22] 102 % of control | [23] 105 % of control

Cc1ccc(NC(=O)C(F)(F)F)cc1
inactive: [4] 113 % of control | [11] 108 % of control | [12] 108 % of control

CCOC(=O)COc1cc2c(cc1C(C)c1ccc(OC)c(OC)c1)OCO2 (stereo not given)
inactive: [14] 90 % of control | [15] 91 % of control | dose: 200.0 mg/kg/injection, schedule: Q01DX005 (ip), vehicle: distilled water + Tween-80 86 % of control

CNc1ccc(CN2CCCCC2)cc1C
inactive: dose: 0.93 mg/kg/injection, schedule: Q01DX005 (ip), vehicle: Klucel (hydroxypropylcellulose) (HPC) 100 % of control and 92 % of control | dose: 1.87 mg/kg/injection, schedule: Q01DX005 (ip), vehicle: Klucel (hydroxypropylcellulose) (HPC) 100 % of control and 97 % of control | dose: 3.75 mg/kg/injection, schedule: Q01DX005 (ip), vehicle: Klucel (hydroxypropylcellulose) (HPC) 99 % of control and 95 % of control and 96 % of control

S=c1n(-c2ccc(Cl)cc2)c2nc3ccccc3nc(/c2=N\Nc2cc(Cl)ccc2Cl)n1-c1ccccn1
inactive: [16] 103 % of control | [17] 100 % of control

Cc1ccc(-c2csc3nc(C)cc(=O)n23)cc1
inactive: [19] 111 % of control | [20] 105 % of control | dose: 400.0 mg/kg/injection, schedule: Q04DX003 (ip), vehicle: Klucel (hydroxypropylcellulose) (HPC) 106 % of control

Cc1ccc(S(=O)(=O)N/N=C/c2c(-c3ccc(Cl)cc3)nc3n2CCS3)cc1
inactive: [21] 100 % of control | [22] 92 % of control | [23] 94 % of control
